What was measured:
[1] = Inhibition of TNF-α release from LPS stimulated isolated human PBMC; type: cell-based; details: Homo sapiens, PBMC, read-out: IC50 (nM) for inhibition of TNF-α release
Procedure: The anti-inflammatory activity of the compounds against human leukocytes in vitro was also evaluated by determining inhibition of tumour necrosis factor-α (TNF-α) release from lipopolysaccharide (LPS) stimulated isolated human peripheral mononuclear cells (PBMC).
Peripheral venous blood from healthy, non-medicated donors was collected using ethylenediaminetetraacetic acid (EDTA) as the anti-coagulant. For PBMC preparation, samples of blood were diluted 1:1 with sterile phosphate buffered saline and then separated using ACCUSPIN™ System-Histopaque®-1077 tubes (Sigma-Aldrich, St Louis, Mo.), centrifuged at 400 g for 35 minutes. Buffy coat cells were removed into PBS, centrifuged at 200 g for 10 minutes and re-suspended in PBMC assay buffer (Hanks Balanced Salt Solution, 0.28% [w/v] 4-[2-hydroxyethyl]-1-piperazineethanesulfonic acid [HEPES], 0.01% [w/v] low-endotoxin bovine serum albumin [BSA]. A differential white cell count was performed and PBMC's diluted to 1×10^6 lymphocytes per ml in PBMC assay buffer.
Test compounds were dissolved in DMSO and diluted in PBMC assay buffer (final DMSO concentration 1%) to cover an appropriate concentration range, e.g 0.001 nM to 10000 nM. Samples of test compound solution or vehicle (20 μl) were added into 96-well tissue culture treated plates (Corning) and PBMC (160 μl) added to each well. The assay mixtures were incubated at 37° C. for 1 h in a humidified incubator containing an atmosphere of air supplemented with 5% CO2 before adding LPS (20 μl of 100 ng/ml for PBMC). Plates were returned to the incubator for a further 18 hours, and then centrifuged before recovery of samples of supernatant. TNF-α in the samples was determined using an enzyme-linked immunosorbent assay (ELISA) (Invitrogen kit no CHC-1754; Invitrogen Carlsbad, Calif.) and following the manufacturers instructions. Dose response curves were constructed from which IC50 values were calculated.

human GR = molecular target: T1, human GR (Homo sapiens, UniProt P04150); assay: GR agonist potency, MMTV-luciferase reporter in SW1353 cells; type: cell-based; details: human chondrosarcoma cell-line SW1353 stably transfected with MMTV-luciferase reporter; approx. 18 hours; data as percentage of 1 μM dexamethasone positive control
T1 construct: SW1353 naturally expresses human GR; endogenous in cells; host or cells: human chondrosarcoma cell-line SW1353 stably transfected with an MMTV-luciferase reporter construct
T1 sequence (P04150 1-777): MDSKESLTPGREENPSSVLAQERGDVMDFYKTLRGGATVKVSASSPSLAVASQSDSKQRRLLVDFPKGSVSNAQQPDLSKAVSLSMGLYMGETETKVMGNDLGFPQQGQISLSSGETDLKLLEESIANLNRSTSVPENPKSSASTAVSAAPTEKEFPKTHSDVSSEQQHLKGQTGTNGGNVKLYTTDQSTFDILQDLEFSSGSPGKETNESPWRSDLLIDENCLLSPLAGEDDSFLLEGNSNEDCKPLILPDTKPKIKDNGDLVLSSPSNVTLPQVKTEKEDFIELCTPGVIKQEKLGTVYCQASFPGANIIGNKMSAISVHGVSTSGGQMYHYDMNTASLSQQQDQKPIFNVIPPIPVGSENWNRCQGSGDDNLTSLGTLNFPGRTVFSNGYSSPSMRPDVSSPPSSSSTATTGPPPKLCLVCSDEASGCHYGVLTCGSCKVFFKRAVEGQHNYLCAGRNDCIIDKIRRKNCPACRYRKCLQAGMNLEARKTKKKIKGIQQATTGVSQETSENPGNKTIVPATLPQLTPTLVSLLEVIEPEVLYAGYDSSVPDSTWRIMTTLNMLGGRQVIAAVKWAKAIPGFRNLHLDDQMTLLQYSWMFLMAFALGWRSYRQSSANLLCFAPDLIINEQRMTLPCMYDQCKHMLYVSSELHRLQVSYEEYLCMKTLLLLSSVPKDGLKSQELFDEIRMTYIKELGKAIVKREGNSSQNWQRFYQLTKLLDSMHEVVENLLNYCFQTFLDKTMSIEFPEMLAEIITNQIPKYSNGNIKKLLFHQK
Procedure: Glucococorticoid receptor (GR) agonist potency was determined in the human chondrosarcoma cell-line SW1353 stably transfected with an MMTV-luciferase reporter construct. SW1353 naturally expresses human GR, which on binding a glucocorticoid agonist activates glucocorticoid response elements within the MMTV promoter, driving expression of the luciferase gene.
Frozen SW1353 cells were revived in DMEM medium, without sodium pyruvate or phenol red, supplemented with 2 mM L-glutamine, 1 μg/ml insulin, 2 mg/ml lactalbumin hydrosylate and 0.5 μg/ml ascorbate. Cells were seeded at approximately 5000 cells/well (35 μl/well) in 384-well clear bottom, tissue culture treated plates. Steroid dose-response dilutions were prepared in steroid diluent (PBS containing 2.5% (v/v) DMSO and 0.05% (v/v) pluronic detergent) and 5 μl added to each well. The volume was made up to 50 μl per well with steroid diluent. Positive control wells contained 1 μM dexamethasone. Plates were incubated for approximately 18 hours at 37° C. in an air/5% CO2 atmosphere in a humidified incubator before Britelite reagent (10 μl; Perkin-Elmer) was added to each well. Each plate was incubated for 2 minutes in the dark and luminescence quantified using a LJL Biosystems Analyst luminometer. Data for test compounds (expressed as percentage of the dexamethasone positive control) were used to construct dose response curves from which EC50 values were estimated.

With `C[C@]12C=CC(=O)C=C1[C@@H](F)C[C@H]1[C@@H]3CC[C@](OC(=O)c4ccc(CSc5ccc(O)cc5)cc4)(C(=O)OCC#N)[C@@]3(C)C[C@H](O)[C@@]12F` [Example 11, cyanomethyl(6alpha,11beta,17alpha)-6,9-difluoro-11-hydroxy-17-[(4-{[(4-hydroxyphenyl)thio]methyl}benzoyl)oxy]-3-oxoandrosta-1,4-diene-17-carboxylate] as the compound, how does the IC50 [1] read?
Its IC50 is 0.735 nM.

And the EC50 (human GR)?
Its EC50 is 30.2 nM.

For `C[C@]12C=CC(=O)C=C1CC[C@H]1[C@@H]3CC[C@](OC(=O)c4ccc(Oc5ccc(O)c(Cl)c5)cc4)(C(=O)SCC#N)[C@@]3(C)C[C@H](O)[C@@]12F` [Example 12, (11beta,17alpha)-17-{[(cyanomethyl)thio]-carbonyl}-9-fluoro-11-hydroxy-3-oxoandrosta-1,4-dien-17-yl 4-(3-chloro-4-hydroxyphenoxy)benzoate], which IC50 [1] is on record?
The IC50 was 0.345 nM.

And the EC50 (human GR)?
The EC50 was 117 nM.

For `C[C@]12C=CC(=O)C=C1CC[C@H]1[C@@H]3CC[C@](OC(=O)c4ccc(Sc5ccc(O)c(Cl)c5)cc4)(C(=O)SCC#N)[C@@]3(C)C[C@H](O)[C@@]12F` [Example 13, (11beta,17alpha)-17-{[(cyanomethyl)thio]carbonyl}-9-fluoro-11-hydroxy-3-oxoandrosta-1,4-dien-17-yl 4-[(3-chloro-4-hydroxyphenyl)thio]benzoate], which IC50 [1] is on record?
Its IC50 is 0.799 nM.

What about the EC50 (human GR) of the same compound?
Its EC50 is 80.9 nM.

Which IC50 [1] does the source give for `C[C@]12C=CC(=O)C=C1CC[C@H]1[C@@H]3CC[C@](OC(=O)c4ccc(Oc5ccccc5)cc4)(C(=O)OCC#N)[C@@]3(C)C[C@H](O)[C@@]12F` [Example 14, cyanomethyl(11beta,17alpha)-9-fluoro-11-hydroxy-3-oxo-17-[(4-phenoxybenzoyl)oxy]androsta-1,4-diene-17-carboxylate] here?
Its IC50 is 0.234 nM.

What about the EC50 (human GR) of the same compound?
The EC50 was 23.9 nM.

For `C[C@]12C=CC(=O)C=C1CC[C@H]1[C@@H]3CC[C@](OC(=O)c4ccc(Sc5cccc(O)c5)cc4)(C(=O)OCC#N)[C@@]3(C)C[C@H](O)[C@@]12F` [Example 15, cyanomethyl(11beta,17alpha)-9-fluoro-11-hydroxy-17-({4-[(3-hydroxyphenyl)thio]-benzoyl}oxy)-3-oxoandrosta-1,4-diene-17-carboxylate], which IC50 [1] is on record?
Its IC50 is 0.164 nM.

And the EC50 (human GR)?
Its EC50 is 35.1 nM.

With `C[C@]12C=CC(=O)C=C1CC[C@H]1[C@@H]3CC[C@](OC(=O)c4ccc(Oc5ccc(O)cc5)cc4)(C(=O)OCC#N)[C@@]3(C)C[C@H](O)[C@@]12F` [Example 16, cyanomethyl (11beta,17alpha)-9-fluoro-11-hydroxy-17-{[4-(4-hydroxyphenoxy)benzoyl]oxy}-3-oxoandrosta-1,4-diene-17-carboxylate] as the compound, how does the IC50 [1] read?
Its IC50 is 0.067 nM.

What about the EC50 (human GR) of the same compound?
The EC50 was 24 nM.

For `C[C@]12C=CC(=O)C=C1CC[C@H]1[C@@H]3CC[C@](OC(=O)c4ccc(Oc5cccc(O)c5)cc4)(C(=O)OCC#N)[C@@]3(C)C[C@H](O)[C@@]12F` [Example 17, cyanomethyl (11beta,17alpha)-9-fluoro-11-hydroxy-17-{[4-(3-hydroxyphenoxy)benzoyl]oxy}-3-oxoandrosta-1,4-diene-17-carboxylate], which IC50 [1] is on record?
The IC50 was 0.157 nM.

What about the EC50 (human GR) of the same compound?
Its EC50 is 37.9 nM.

For `C[C@]12C=CC(=O)C=C1CC[C@H]1[C@@H]3CC[C@](OC(=O)c4ccc(Sc5ccccc5)c(O)c4)(C(=O)OCC#N)[C@@]3(C)C[C@H](O)[C@@]12F` [Example 19, cyanomethyl (11beta,17alpha)-9-fluoro-11-hydroxy-17-{[3-hydroxy-4-(phenylthio)benzoyl]oxy}-3-oxoandrosta-1,4-diene-17-carboxylate], which IC50 [1] is on record?
Its IC50 is 0.3 nM.

And the EC50 (human GR)?
The EC50 was 44.8 nM.

For `C[C@]12C=CC(=O)C=C1CC[C@H]1[C@@H]3CC[C@](OC(=O)c4ccc(Sc5ccc(O)c(Cl)c5)cc4)(C(=O)OCC#N)[C@@]3(C)C[C@H](O)[C@@]12F` [Example 20, cyanomethyl (11beta,17alpha)-17-({4-[(3-chloro-4-hydroxyphenyl)thio]-benzoyl}oxy)-9-fluoro-11-hydroxy-3-oxoandrosta-1,4-diene-17-carboxylate], which IC50 [1] is on record?
The IC50 was 0.29 nM.

And the EC50 (human GR)?
The EC50 was 39.2 nM.

Which results are given for `C[C@]12C=CC(=O)C=C1CC[C@H]1[C@@H]3CC[C@](OC(=O)c4ccc(Oc5ccccc5)cc4O)(C(=O)OCC#N)[C@@]3(C)C[C@H](O)[C@@]12F` [Example 21, cyanomethyl(11beta,17alpha)-9-fluoro-11-hydroxy-17-[(2-hydroxy-4-phenoxybenzoyl)oxy]-3-oxoandrosta-1,4-diene-17-carboxylate]?
IC50 [1]: 0.656 nM; EC50 (human GR): 49 nM

For `C[C@]12C=CC(=O)C=C1CC[C@H]1[C@@H]3CC[C@](OC(=O)c4ccc(Cc5ccccc5)cc4)(C(=O)SCF)[C@@]3(C)C[C@H](O)[C@@]12F` [Example 22, (11beta,17alpha)-9-fluoro-17-{[(fluoromethyl)thio]carbonyl}-11-hydroxy-3-oxoandrosta-1,4-dien-17-yl 4-benzylbenzoate], which IC50 [1] is on record?
The IC50 was 0.087 nM.

What about the EC50 (human GR) of the same compound?
The EC50 was 69.9 nM.

For `CSc1cccc(Sc2ccc(C(=O)O[C@]3(C(=O)SCF)CC[C@H]4[C@@H]5CCC6=CC(=O)C=C[C@]6(C)[C@@]5(F)[C@@H](O)C[C@@]43C)cc2)c1` [Example 23, (11beta,17alpha)-9-fluoro-17-{[(fluoromethyl)thio]carbonyl}-11-hydroxy-3-oxoandrosta-1,4-dien-17-yl 4-{[3-(methylthio)phenyl]thio}benzoate], which IC50 [1] is on record?
Its IC50 is 0.536 nM.

And the EC50 (human GR)?
Its EC50 is 52.5 nM.

Which results are given for `C[C@]12C=CC(=O)C=C1CC[C@H]1[C@@H]3CC[C@](OC(=O)c4ccc(Sc5ccccc5)cc4)(C(=O)SCF)[C@@]3(C)C[C@H](O)[C@@]12F` [Example 24, (11beta,17alpha)-9-fluoro-17-{[(fluoromethyl)thio]carbonyl}-11-hydroxy-3-oxoandrosta-1,4-dien-17-yl 4-(phenylthio)benzoate]?
IC50 [1]: 0.117 nM; EC50 (human GR): 25.8 nM

Which IC50 [1] does the source give for `C[C@]12C=CC(=O)C=C1CC[C@H]1[C@@H]3CC[C@](OC(=O)c4ccc(Oc5ccccc5)cc4)(C(=O)SCF)[C@@]3(C)C[C@H](O)[C@@]12F` [Example 25, (11beta, 17alpha)-9-fluoro-17-{[(fluoromethyl)thio]carbonyl}-11-hydroxy-3-oxoandrosta-1,4-dien-17-yl 4-phenoxybenzoate] here?
Its IC50 is 0.026 nM.

What about the EC50 (human GR) of the same compound?
Its EC50 is 19.8 nM.

Which results are given for `C[C@]12C=CC(=O)C=C1CC[C@H]1[C@@H]3CC[C@](OC(=O)c4ccc(Oc5ccc(O)c(Cl)c5)cc4)(C(=O)SCF)[C@@]3(C)C[C@H](O)[C@@]12F` [Example 26, (11beta, 17alpha)-9-fluoro-17-{[(fluoromethyl)thio]carbonyl}-11-hydroxy-3-oxoandrosta-1,4-dien-17-y1 4-(3-chloro-4-hydroxyphenoxy)-benzoate]?
IC50 [1]: 0.177 nM; EC50 (human GR): 42.6 nM
